Measurements taken from the supplement of paper PMC10290057.
Structures can show the parent of a compound that is named as a salt.

Assays:
HCT116 [1] = assay: AC50 cell viability (CellTiter-Glo); higher = less potent; details: 48 h
HCT116 [2] = assay: efficacy (fitted maximal change in viability relative to DMSO control); higher = less cytotoxic (negative = loss of viability); details: 48 h
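Throughout, for AC50 cell viability (CellTiter-Glo): HCT116 colorectal carcinoma cells screened at five concentrations per compound, luminescent viability scaled between DMSO wells and empty wells on each plate, curves fitted per compound.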
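Throughout, for efficacy (fitted maximal change in viability relative to DMSO control): Luminescence-based viability readout, five doses per compound, normalized against on-plate DMSO and empty-well controls, followed by dose-response curve fitting for every drug.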

| Structure (SMILES) | AC50 cell viability (HCT116 [1]) [µM] | efficacy (HCT116 [2]) [%] |
| --- | --- | --- |
| COc1ccc(Cc2nccc3cc(OC)c(OC)cc23)cc1OC [Papaverine hydrochloride] | 4.17 | -61.1 |
| CCCCc1ccc2[nH]c(NC(=O)OC)nc2c1 [Parbendazole] | 0.105 | -63.1 |
| [2H]C([2H])([2H])C(O)([C@@H](C)/C=C/[C@@H](C)[C@H]1CC[C@H]2/C(=C/C=C3C[C@@H](O)C[C@H](O)C3)CCC[C@]12C)C([2H])([2H])[2H] [Paricalcitol-D6 (ABT-358)] | 18.6 | -54 |
| ClC1=CC=C(CCCOC/2=N/NC(=O)C(=C2NCC3=CN=CC=C3)/Br)C=C1 [Parogrelil] | 18.6 | -86.2 |
| C=C1C(=O)O[C@@H]2[C@H]3O[C@]3(C)CC/C=C(\C)CC[C@@H]12 [Parthenolide] | 13.2 | -97.4 |
| C[C@@H]1CN[C@H]2[C@@H](C)[C@@]3(CC[C@H]4[C@@H]5CC[C@@H]6C[C@@H](CC[C@]6(C)[C@H]5C\C4=C(C)\C3)N[S+](C)([O-])=O)O[C@@H]2C1 [Patidegib] | 14.8 | -94.4 |
| Cc1ccc(Nc2nccc(N(C)c3ccc4c(C)n(C)nc4c3)n2)cc1[S+](N)(=O)[O-] [Pazopanib] | 5.25 | -51.5 |
| NC(=O)c1cnc2[nH]ccc2c1NC1C2CC3C[C@H]1CC(O)(C3)C2 (stereo partly drawn) [Peficitinib] | 7.42 | -67.2 |
| CCOc1cc2ncc(C#N)c(Nc3ccc(F)c(Cl)c3)c2cc1NC(=O)/C=C/CN(C)C [Pelitinib] | 5.9 | -97.7 |
| NC/1=N/C(=O)C2=C([NH]C=C2CCC3=CC=C(C=C3)C(=O)N[C@@H](CCC(O)=O)C(O)=O)N1 [Pemetrexed] | 0.742 | -40.7 |
| N=C(N)c1ccc(OCCCCCOc2ccc(C(=N)N)cc2)cc1 [Pentamidine isethionate] | 20.9 | -54.5 |
| C1CCC(C(CC2CCCCN2)C2CCCCC2)CC1 (stereo not drawn) [Perhexiline] | 6.61 | -92.2 |
| Cc1ccc(-n2nc(C(C)(C)C)cc2N/C(O)=N/Cc2cc(F)ccc2Oc2ccc3c(cnn3CCO)c2)cc1 [Pexmetinib] | 10.5 | -98.4 |
| N=C(N)NC(=N)NCCc1ccccc1 [Phenformin hydrochloride] | 13.2 | -38.6 |
| CC1=CC=C(C=C1)N(C\C2=N\CCN2)C3=CC=CC(=C3)O [Phentolamine mesilate] | 20.9 | -60 |
| Oc1cc(O)cc(/C=C/c2ccc(O)c(O)c2)c1 [Piceatannol] | 26.3 | -69 |
| CC\1=C/C=C\C=[N]1[Pt](N)(Cl)Cl [Picoplatin] | 20.9 | -50.8 |
| COc1cc([C@@H]2c3cc4c(cc3[C@H](O)[C@H]3COC(=O)[C@@H]23)OCO4)cc(OC)c1OC [Picropodophyllin] | 0.417 | -56.6 |
| C[S+](=O)([O-])N1CCN(Cc2cc3nc(-c4cccc5[nH]ncc45)nc(N4CCOCC4)c3s2)CC1 [Pictilisib] | 3.32 | -78.3 |
| COc1ccc(Cl)c(Nc2nc3ccccc3nc2N[S+](=O)([O-])c2cccc(NC(=O)C(C)(C)N)c2)c1 [Pilaralisib] | 16.6 | -39.5 |
| O=C(NC[C@H](O)CO)c1ccncc1Nc1ccc(I)cc1F [Pimasertib] | 0.118 | -44.3 |
| COC1=CC=C(C=C1)C2=NC3=CC(=CC=C3[NH]2)/C4=N/NC(=O)CC4C (stereo not drawn) [Pimobendan] | 9.34 | -48.6 |
| c1ccc(-c2cc(CCC3CCNCC3)c3ccccc3n2)cc1 [Pipequaline] | 16.6 | -108 |
| O=C(/C=C/C=C/c1ccc2c(c1)OCO2)N1CCCCC1 [Piperine] | 20.9 | -46 |
